In US11919901B2 (Syndax Pharmaceuticals, Inc., priority 2021, dated 2024) one finds Ki and EC50 data, which are given here for 22 compounds.

Molecules are shown by their SMILES.

In the assay the target is Menin-MLL (Homo sapiens (Human), UniProt O00255). The assay is described as follows: Determination of binding constants (Ki) to Menin-MLL (HTRF). To be noted: HTRF, 0.25 nM H-FL-Menin, 3.2 nM FITC-MLL-4-43, 24 hr incubation; for Ki: read-out: Menin-MLL Ki HTRF Assay: Ki. In general terms: In TR-FRET formats the signal depends on donor and acceptor labels being close together.
Menin-MLL, sequence (O00255 whole entry): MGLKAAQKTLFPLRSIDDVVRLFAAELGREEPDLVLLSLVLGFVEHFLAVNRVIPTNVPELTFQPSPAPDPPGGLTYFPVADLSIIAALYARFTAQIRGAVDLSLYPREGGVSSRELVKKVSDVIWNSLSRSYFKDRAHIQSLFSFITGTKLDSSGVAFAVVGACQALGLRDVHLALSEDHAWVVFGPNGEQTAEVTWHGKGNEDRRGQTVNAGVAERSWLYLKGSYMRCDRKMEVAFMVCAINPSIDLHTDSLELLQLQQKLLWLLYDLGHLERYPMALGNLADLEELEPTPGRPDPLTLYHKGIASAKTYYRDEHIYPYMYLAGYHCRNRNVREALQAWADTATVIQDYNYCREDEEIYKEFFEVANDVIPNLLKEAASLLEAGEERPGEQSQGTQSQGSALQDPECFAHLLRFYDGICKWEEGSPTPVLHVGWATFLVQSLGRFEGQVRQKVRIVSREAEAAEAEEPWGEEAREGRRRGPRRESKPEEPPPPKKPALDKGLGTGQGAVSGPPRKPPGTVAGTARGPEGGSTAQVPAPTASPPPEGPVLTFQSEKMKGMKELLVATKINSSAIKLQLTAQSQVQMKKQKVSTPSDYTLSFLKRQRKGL

The term Ki denotes the equilibrium dissociation constant of an inhibitor or competing ligand from its target. Consider `CC(C)N(CC(F)F)C(=O)c1cc(F)ccc1Oc1nncnc1N1CC2(CCN(C[C@@H]3CC[C@@H](NS(=O)(=O)c4cnn(C)c4)CO3)CC2)C1` [Compound 187, N-(2,2-Difluoroethyl)-5-fluoro-N-isopropyl-2-((5-(7-(((2S,5R)-5-((1-methyl-1H-pyrazole)-4-sulfonamido)tetrahydro-2H-pyran-2-yl)methyl)-2,7-diazaspiro[3.5]nonan-2-yl)-1,2,4-triazin-6-yl)oxy)benzamide], for which the Ki is less than 1 nM.

For orientation: EC50 means the concentration that produces a half-maximal response. High values mean weaker potency, low ones greater potency. On to `CCS(=O)(=O)N[C@@H]1CC[C@@H](CN2CCC3(CC2)CN(c2ncncc2Oc2ccc(F)cc2C(=O)N2[C@H](C)COC[C@H]2C)C3)OC1` [Compound 29], for which the concentration for a half-maximal effect (EC50) is less than 50 nM and the Ki is less than 1 nM.

On to `CCN(C(=O)c1cc(F)ccc1Oc1cncnc1N1CC2(CCN(C[C@@H]3CC[C@@H](NS(N)(=O)=O)CO3)CC2)C1)C(C)C` [Compound 73, N-Ethyl-5-fluoro-N-isopropyl-2-((4-(7-(((2S,5R)-5-(sulfamoylamino)tetrahydro-2H-pyran-2-yl)methyl)-2,7-diazaspiro[3.5]nonan-2-yl)pyrimidin-5-yl)oxy)benzamide], for which the inhibition constant Ki was less than 1 nM.

For `CCN(C(=O)c1cc(F)ccc1Oc1cncnc1N1CC2(CCN(C[C@@H]3CC[C@@H](NS(=O)(=O)CC4CC4)CO3)CC2)C1)C(C)C` [Compound 7, 2-((4-(7-(((2S,5R)-5-((cyclopropylmethyl)sulfonamido)tetrahydro-2H-pyran-2-yl)methyl)-2,7-diazaspiro[3.5]nonan-2-yl)pyrimidin-5-yl)oxy)-N-ethyl-5-fluoro-N-isopropylbenzamide], the EC50 is less than 50 nM and the inhibitory constant (Ki) was less than 1 nM.

`C[C@@H]1COC[C@@H](C)N1C(=O)c1cc(F)ccc1Oc1cncnc1N1CC2(CCN(C[C@@H]3CC[C@@H](NS(=O)(=O)C4CC4)CO3)CC2)C1` [Compound 31, N-((3R,6S)-6-((2-(5-(2-((3R,5R)-3,5-dimethylmorpholine-4-carbonyl)-4-fluorophenoxy)pyrimidin-4-yl)-2,7-diazaspiro[3.5]nonan-7-yl)methyl)tetrahydro-2H-pyran-3-yl)cyclopropanesulfonamide]: the half-maximal effective concentration (EC50) is less than 50 nM and the Ki is less than 1 nM.

Regarding `CC(C)N(C(=O)c1cc(F)ccc1Oc1cncnc1N1CC2(CCN(C[C@@H]3CC[C@@H](NS(C)(=O)=O)CO3)CC2)C1)[C@H]1CCOC1` [Compound 173, 5-Fluoro-N-isopropyl-2-((4-(7-(((2S,5R)-5-(methylsulfonamido)tetrahydro-2H-pyran-2-yl)methyl)-2,7-diazaspiro[3.5]nonan-2-yl)pyrimidin-5-yl)oxy)-N-((S)-tetrahydrofuran-3-yl)benzamide], the Ki is less than 1 nM.

Turning to `CC(C)N(C(=O)c1cc(F)ccc1Oc1cncnc1N1CC2(CCN(C[C@@H]3CC[C@@H](N[S@@](=N)(=O)c4ccccc4)CO3)CC2)C1)C(C)C` (single isomer, unassigned) [Compound 229], the inhibition constant Ki is less than 1 nM.

Consider `CCS(=O)(=O)N[C@@H]1CC[C@@H](CN2CCC3(CC2)CN(c2ncncc2Oc2ccc(F)cc2C(=O)N(c2ccccc2)C(C)C)C3)OC1` [Compound 260, 2-((4-(7-(((2S,5R)-5-(Ethylsulfonamido)tetrahydro-2H-pyran-2-yl)methyl)-2,7-diazaspiro[3.5]nonan-2-yl)pyrimidin-5-yl)oxy)-5-fluoro-N-isopropyl-N-phenylbenzamide], for which the 50% effective concentration (EC50) was less than 50 nM.

Take `CC(C)S(=O)(=O)N[C@@H]1CC[C@@H](CN2CCC3(CC2)CN(c2ncncc2Oc2ccc(F)cc2C(=O)N2[C@H](C)COC[C@H]2C)C3)OC1` [Compound 30]: the 50% effective concentration (EC50) was less than 50 nM and the inhibition constant (Ki) is less than 1 nM.

For `CC(C)N(CC(F)(F)F)C(=O)c1cc(F)ccc1Oc1cncnc1N1CC2(CCN(C[C@@H]3CC[C@@H](NS(=O)(=O)C(C)C)CO3)CC2)C1` [Compound 109, 5-Fluoro-N-isopropyl-2-((4-(7-(((2S,5R)-5-((1-methylethyl)sulfonamido)tetrahydro-2H-pyran-2-yl)methyl)-2,7-diazaspiro[3.5]nonan-2-yl)pyrimidin-5-yl)oxy)-N-(2,2,2-trifluoroethyl)benzamide], the EC50 was less than 50 nM and the Ki is less than 1 nM.

`CCN(C(=O)c1cc(F)ccc1Oc1cncnc1N1CC2(CCN(C[C@@H]3CC[C@@H](NS(=O)(=O)C4CCOCC4)CO3)CC2)C1)C(C)C` [Compound 67, N-Ethyl-5-fluoro-N-isopropyl-2-((4-(7-(((2S,5R)-5-((tetrahydro-2H-pyran)-4-sulfonamido)tetrahydro-2H-pyran-2-yl)methyl)-2,7-diazaspiro[3.5]nonan-2-yl)pyrimidin-5-yl)oxy)benzamide]: the concentration for a half-maximal effect (EC50) was less than 50 nM and the Ki is less than 1 nM.

On to `CC(C)N(C(=O)c1cc(F)ccc1Oc1cncnc1N1CC2(CCN(C[C@@H]3CC[C@@H](NS(N)(=O)=O)CO3)CC2)C1)C1CC(F)(F)C1` [Compound 117, N-(3,3-Difluorocyclobutyl)-5-fluoro-N-isopropyl-2-((4-(7-(((2S,5R)-5-(sulfamoylamino)tetrahydro-2H-pyran-2-yl)methyl)-2,7-diazaspiro[3.5]nonan-2-yl)pyrimidin-5-yl)oxy)benzamide], for which the EC50 is less than 50 nM and the inhibitory constant (Ki) was less than 1 nM.

Consider `CN=S(=O)(N[C@@H]1CC[C@@H](CN2CCC3(CC2)CN(c2ncncc2Oc2ccc(F)cc2C(=O)N(C(C)C)C(C)C)C3)OC1)c1ccccc1` (stereo partly drawn) [Compound 232, 5-Fluoro-N,N-diisopropyl-2-((4-(7-(((2S,5R)-5-(N′-methylphenylsulfonoamidimidamido)tetrahydro-2H-pyran-2-yl)methyl)-2,7-diazaspiro[3.5]nonan-2-yl)pyrimidin-5-yl)oxy)benzamide], for which the Ki was less than 1 nM.

In the case of `CCN(C(=O)c1cc(F)ccc1Oc1cncnc1N1CC2(CCN(C[C@@H]3CC[C@@H](NS(=O)(=O)N(C)CC)CO3)CC2)C1)C(C)C` [Compound 140, N-Ethyl-2-((4-(7-(((2S,5R)-5-((N-ethyl-N-methylsulfamoyl)amino)tetrahydro-2H-pyran-2-yl)methyl)-2,7-diazaspiro[3.5]nonan-2-yl)pyrimidin-5-yl)oxy)-5-fluoro-N-isopropylbenzamide], the inhibition constant Ki is less than 1 nM.

`CC(C)N(C(=O)c1cc(F)ccc1Oc1cncnc1N1CC2(CCN(C[C@@H]3CC[C@@H](NS(=N)(=O)C4CC4)CO3)CC2)C1)C(C)C` (stereo partly drawn) [Compound 233, 2-((4-(7-(((2S,5R)-5-(Cyclopropanesulfonoamidimidamido)tetrahydro-2H-pyran-2-yl)methyl)-2,7-diazaspiro[3.5]nonan-2-yl)pyrimidin-5-yl)oxy)-5-fluoro-N,N-diisopropylbenzamide]: the Ki was less than 1 nM.

As to `CCN(C(=O)c1cc(F)ccc1Oc1cncnc1N1CC2(CCN(C[C@@H]3CC[C@@H](NS(=O)(=O)CCN(C)C)CO3)CC2)C1)C(C)C` [Compound 220, 2-((4-(7-(((2S,5R)-5-((2-(Dimethylamino)ethyl)sulfonamido)tetrahydro-2H-pyran-2-yl)methyl)-2,7-diazaspiro[3.5]nonan-2-yl)pyrimidin-5-yl)oxy)-N-ethyl-5-fluoro-N-isopropylbenzamide], the Ki is 1 to 1.5 nM.

With `C[C@@H]1COC[C@H](C)N1C(=O)c1cc(F)ccc1Oc1cncnc1N1CC2(CCN(C[C@@H]3CC[C@@H](NS(=O)(=O)C4CC4)CO3)CC2)C1` [Compound 26, N-((3R,6S)-6-((2-(5-(2-((3S,5R)-3,5-dimethylmorpholine-4-carbonyl)-4-fluorophenoxy)pyrimidin-4-yl)-2,7-diazaspiro[3.5]nonan-7-yl)methyl)tetrahydro-2H-pyran-3-yl)cyclopropanesulfonamide], the EC50 is less than 50 nM and the Ki was less than 1 nM.

With `COCCN(C(=O)c1cc(F)ccc1Oc1cncnc1N1CC2(CCN(C[C@@H]3CC[C@@H](NS(=O)(=O)C4CC4)CO3)CC2)C1)C(C)C` [Compound 51, 2-((4-(7-(((2S,5R)-5-(cyclopropanesulfonamido)tetrahydro-2H-pyran-2-yl)methyl)-2,7-diazaspiro[3.5]nonan-2-yl)pyrimidin-5-yl)oxy)-5-fluoro-N-isopropyl-N-(2-methoxyethyl)benzamide], the concentration for a half-maximal effect (EC50) was less than 50 nM.

Consider `CCN(C(=O)c1cc(F)ccc1Oc1cncnc1N1CC2(CCN(C[C@H]3CC[C@H](NS(=O)(=O)CC)CO3)CC2)C1)C(C)C` (stereo in doubt) [Compound 52, N-ethyl-2-((4-(7-(((2R,5S)-5-(ethylsulfonamido)tetrahydro-2H-pyran-2-yl)methyl)-2,7-diazaspiro[3.5]nonan-2-yl)pyrimidin-5-yl)oxy)-5-fluoro-N-isopropylbenzamide], for which the 50% effective concentration (EC50) was less than 50 nM.

As for `C[C@@H]1COC[C@H](C)N1C(=O)c1cc(F)ccc1Oc1cncnc1N1CC2(CCN(C[C@@H]3CC[C@@H](NS(=O)(=O)N(C)C)CO3)CC2)C1` [Compound 160, {[(3R,6S)-6-{[2-(5-{2-[(3R,5S)-3,5-Dimethylmorpholine-4-carbonyl]-4-fluorophenoxy}pyrimidin-4-yl)-2,7-diazaspiro[3.5]nonan-7-yl]methyl}oxan-3-yl]sulfamoyl}dimethylamine], the inhibition constant (Ki) was less than 1 nM.

For `CCN(C)S(=O)(=O)N[C@@H]1CC[C@@H](CN2CCC3(CC2)CN(c2ncncc2Oc2ccc(F)cc2C(=O)N(C(C)C)[C@@H]2CCOC2)C3)OC1` [Compound 170, 2-((4-(7-(((2S,5R)-5-((N-Ethyl-N-methylsulfamoyl)amino)tetrahydro-2H-pyran-2-yl)methyl)-2,7-diazaspiro[3.5]nonan-2-yl)pyrimidin-5-yl)oxy)-5-fluoro-N-isopropyl-N-((R)-tetrahydrofuran-3-yl)benzamide], the inhibition constant (Ki) is less than 1 nM.

For `CCN(C(=O)c1cc(F)ccc1Oc1cncnc1N1CC2(CCN(C[C@@H]3CC[C@@H](NS(=O)(=O)C4CCOC4)CO3)CC2)C1)C(C)C` (stereo partly drawn) [Compound 10, N-ethyl-5-fluoro-N-isopropyl-2-((4-(7-(((2S,5R)-5-((tetrahydrofuran)-3-sulfonamido)tetrahydro-2H-pyran-2-yl)methyl)-2,7-diazaspiro[3.5]nonan-2-yl)pyrimidin-5-yl)oxy)benzamide], the concentration giving a half-maximal response (EC50) is less than 50 nM and the Ki was less than 1 nM.
